Source: ChEMBL document CHEMBL4825698, “Identification of novel benzothiopyranones with ester and amide motifs derived from active metabolite as promising leads against Mycobacterium tuberculosis” (Eur J Med Chem, 2021)
Converted amounts (≈) assume the structure as drawn.

Experiments:
[1] = test system: Mycobacterium tuberculosis; assay: Antimycobacterial activity against Mycobacterium tuberculosis H37Rv assessed as bacterial growth inhibition incubated for 7 days by MABA assay; assay type: functional; conditions: 168 h, time 7 day
[2] = Metabolic stability in pooled mouse hepatocytes assessed as parent compound remaining after 30 mins; assay type: ADME, cell-based, Hepatocyte; conditions: read-out: Stabilty
[3] = Metabolic Stability in pooled human hepatocytes assessed as parent compound remaining after 30 mins; assay type: ADME, cell-based, Hepatocyte; conditions: read-out: Stabilty
Vero = assay: Cytotoxicity against African green monkey Vero cells assessed as reduction in cell viability after 48 hrs by MTT assay; assay type: cell-based; conditions: Chlorocebus sabaeus
[4] = Metabolic stability in pooled mouse hepatocytes assessed as half life; assay type: ADME, cell-based, Hepatocyte
[5] = Metabolic stability in pooled human hepatocytes assessed as half life; assay type: ADME, cell-based, Hepatocyte

Structure (SMILES) | MIC [1] | remaining at 0.5 h [2] | remaining at 0.5 h [3] | IC50 (Vero) | half-life [4] | half-life [5]
O=C(OC1CCC(CN2CCN(c3cc(=O)c4cc(C(F)(F)F)cc([N+](=O)[O-])c4s3)CC2)CC1)c1ccccc1 (configuration not stated) | < 0.016 µg/mL | 68.1% | 56.4% | > 64 µg/mL | 54.2 min | 36.2 min
O=C(OC1CCC(CN2CCN(c3cc(=O)c4cc(C(F)(F)F)cc([N+](=O)[O-])c4s3)CC2)CC1)c1ccc(C(F)(F)F)cc1 (configuration not stated) | < 0.016 µg/mL | 28.8% | 5.2% | > 64 µg/mL | 16.7 min | 7 min
O=c1cc(N2CCN(CC3CCC(NS(=O)(=O)c4ccccc4)CC3)CC2)sc2c([N+](=O)[O-])cc(C(F)(F)F)cc12 (configuration not stated) | 0.107 µg/mL (≈ 0.175 µM) | 95.3% | 90.8% | > 64 µg/mL | > 93.2 min | > 93.2 min
COc1ccc(C(=O)OC2CCC(CN3CCN(c4cc(=O)c5cc(C(F)(F)F)cc([N+](=O)[O-])c5s4)CC3)CC2)cc1 (configuration not stated) | 0.121 µg/mL (≈ 0.2 µM) | 31% | 12.2% | > 64 µg/mL | 17.7 min | 9.9 min
O=C(OC1CCC(CN2CCN(c3cc(=O)c4cc(C(F)(F)F)cc([N+](=O)[O-])c4s3)CC2)CC1)C1CCCCC1 (configuration not stated) | < 0.016 µg/mL | 1.2% | 2.8% | > 64 µg/mL | 4.7 min | 5.8 min
O=C(NC1CCC(CN2CCN(c3cc(=O)c4cc(C(F)(F)F)cc([N+](=O)[O-])c4s3)CC2)CC1)c1ccccc1 (configuration not stated) | 0.244 µg/mL (≈ 0.425 µM) | 90.6% | 92.9% | 44.3 µg/mL (≈ 77.1 µM) | > 93.2 min | > 93.2 min
CC(=O)NC1CCC(CN2CCN(c3cc(=O)c4cc(C(F)(F)F)cc([N+](=O)[O-])c4s3)CC2)CC1 (configuration not stated) | 4.71 µg/mL (≈ 9.19 µM) | 94.9% | 86.8% | > 64 µg/mL | > 93.2 min | > 93.2 min
O=C(OC1CCC(CN2CCN(c3cc(=O)c4cc(C(F)(F)F)cc([N+](=O)[O-])c4s3)CC2)CC1)c1ccncc1 (configuration not stated) | < 0.016 µg/mL | 1.4% | 1% | > 64 µg/mL | 4.9 min | 4.5 min
CS(=O)(=O)OC1CCC(CN2CCN(c3cc(=O)c4cc(C(F)(F)F)cc([N+](=O)[O-])c4s3)CC2)CC1 (configuration not stated) | < 0.016 µg/mL |  |  | > 64 µg/mL |  | 
Cc1cccc(C(=O)OC2CCC(CN3CCN(c4cc(=O)c5cc(C(F)(F)F)cc([N+](=O)[O-])c5s4)CC3)CC2)c1 (configuration not stated) | < 0.016 µg/mL |  |  | > 64 µg/mL |  | 
C=CC(=O)OC1CCC(CN2CCN(c3cc(=O)c4cc(C(F)(F)F)cc([N+](=O)[O-])c4s3)CC2)CC1 (configuration not stated) | 0.035 µg/mL (≈ 0.0666 µM) |  |  | > 64 µg/mL |  | 
CC(=O)OC1CCC(CN2CCN(c3cc(=O)c4cc(C(F)(F)F)cc([N+](=O)[O-])c4s3)CC2)CC1 (configuration not stated) | < 0.016 µg/mL | 0% | 0% | > 64 µg/mL | < 9 min | < 9 min
O=C(OC1CCC(CN2CCN(c3cc(=O)c4cc(C(F)(F)F)cc([N+](=O)[O-])c4s3)CC2)CC1)c1cccc(F)c1 (configuration not stated) | < 0.016 µg/mL |  |  | > 64 µg/mL |  | 
O=C(OC1CCC(CN2CCN(c3cc(=O)c4cc(C(F)(F)F)cc([N+](=O)[O-])c4s3)CC2)CC1)c1ccc2c(c1)OCC2 (configuration not stated) | 0.179 µg/mL (≈ 0.29 µM) |  |  | > 64 µg/mL |  | 
O=c1cc(N2CCN(CC3CCC(OS(=O)(=O)c4ccccc4)CC3)CC2)sc2c([N+](=O)[O-])cc(C(F)(F)F)cc12 (configuration not stated) | < 0.016 µg/mL |  |  | > 64 µg/mL |  | 
CCCC(=O)OC1CCC(CN2CCN(c3cc(=O)c4cc(C(F)(F)F)cc([N+](=O)[O-])c4s3)CC2)CC1 (configuration not stated) | < 0.016 µg/mL |  |  | > 64 µg/mL |  | 
CC(C)S(=O)(=O)OC1CCC(CN2CCN(c3cc(=O)c4cc(C(F)(F)F)cc([N+](=O)[O-])c4s3)CC2)CC1 (configuration not stated) | < 0.016 µg/mL |  |  | > 64 µg/mL |  | 
O=C(OC1CCC(CN2CCN(c3cc(=O)c4cc(C(F)(F)F)cc([N+](=O)[O-])c4s3)CC2)CC1)c1ccc2ccccc2c1 (configuration not stated) | 0.03 µg/mL (≈ 0.0479 µM) |  |  | > 64 µg/mL |  | 
O=C(OC1CCC(CN2CCN(c3cc(=O)c4cc(C(F)(F)F)cc([N+](=O)[O-])c4s3)CC2)CC1)c1ccc(F)cc1 (configuration not stated) | < 0.016 µg/mL | 1.5% | 3% | > 64 µg/mL | 4.9 min | 5.9 min

Structure (SMILES) | MIC [1] | remaining at 0.5 h [2] | remaining at 0.5 h [3] | IC50 (Vero) | half-life [4] | half-life [5]
Cc1ccc(C(=O)OC2CCC(CN3CCN(c4cc(=O)c5cc(C(F)(F)F)cc([N+](=O)[O-])c5s4)CC3)CC2)cc1 (configuration not stated) | 0.031 µg/mL (≈ 0.0526 µM) | 18% | 9.7% | > 64 µg/mL | 12.1 min | 8.9 min
O=c1cc(N2CCN(CC3CCC(OS(=O)(=O)c4ccc5ccccc5c4)CC3)CC2)sc2c([N+](=O)[O-])cc(C(F)(F)F)cc12 (configuration not stated) | < 0.016 µg/mL |  |  | > 64 µg/mL |  | 
CS(=O)(=O)NC1CCC(CN2CCN(c3cc(=O)c4cc(C(F)(F)F)cc([N+](=O)[O-])c4s3)CC2)CC1 (configuration not stated) | > 32 µg/mL | 111% | 105% | 48.4 µg/mL (≈ 88.3 µM) | > 93.2 min | > 93.2 min
COc1ccccc1C(=O)OC1CCC(CN2CCN(c3cc(=O)c4cc(C(F)(F)F)cc([N+](=O)[O-])c4s3)CC2)CC1 (configuration not stated) | 0.031 µg/mL (≈ 0.0512 µM) |  |  | > 64 µg/mL |  | 
O=c1cc(N2CCN(CC3CCC(NP(=O)(Oc4ccccc4)Oc4ccccc4)CC3)CC2)sc2c([N+](=O)[O-])cc(C(F)(F)F)cc12 (configuration not stated) | 0.076 µg/mL (≈ 0.108 µM) | 66.1% | 74.1% | > 64 µg/mL | 50.2 min | 69.2 min
CC(C)C(=O)OC1CCC(CN2CCN(c3cc(=O)c4cc(C(F)(F)F)cc([N+](=O)[O-])c4s3)CC2)CC1 (configuration not stated) | < 0.016 µg/mL |  |  | > 64 µg/mL |  | 
Nc1cc(C(F)(F)F)cc2c(=O)cc(N3CCN(CC4CCCCC4)CC3)sc12 | 12.7 µg/mL (≈ 29.8 µM) | 69.4% | 0.9% |  |  | 
O=C(OC1CCC(CN2CCN(c3cc(=O)c4cc(C(F)(F)F)cc([N+](=O)[O-])c4s3)CC2)CC1)c1cccc(C(F)(F)F)c1 (configuration not stated) | < 0.016 µg/mL |  |  | > 64 µg/mL |  | 
O=c1cc(N2CCN(CC3CCC(OS(=O)(=O)c4cccnc4)CC3)CC2)sc2c([N+](=O)[O-])cc(C(F)(F)F)cc12 (configuration not stated) | < 0.016 µg/mL |  |  | > 64 µg/mL |  | 
O=c1cc(N2CCN(CC3CCC(OS(=O)(=O)c4ccc5c(c4)CCO5)CC3)CC2)sc2c([N+](=O)[O-])cc(C(F)(F)F)cc12 (configuration not stated) | < 0.016 µg/mL |  |  | > 64 µg/mL |  | 
O=C(OC1CCC(CN2CCN(c3cc(=O)c4cc(C(F)(F)F)cc([N+](=O)[O-])c4s3)CC2)CC1)c1cccs1 (configuration not stated) | < 0.016 µg/mL | 1.8% | 2.2% | > 64 µg/mL | 5.2 min | 5.5 min
COc1cccc(C(=O)OC2CCC(CN3CCN(c4cc(=O)c5cc(C(F)(F)F)cc([N+](=O)[O-])c5s4)CC3)CC2)c1 (configuration not stated) | < 0.016 µg/mL |  |  | > 64 µg/mL |  | 
Nc1cc(C(F)(F)F)cc2c(=O)cc(N3CCN(CC4CCC(O)CC4)CC3)sc12 (configuration not stated) | > 32 µg/mL | 60% | 72.9% |  |  | 
O=C(OC1CCC(CN2CCN(c3cc(=O)c4cc(C(F)(F)F)cc([N+](=O)[O-])c4s3)CC2)CC1)c1ccco1 (configuration not stated) | < 0.016 µg/mL | 0.6% | 1% | > 64 µg/mL | < 4.5 min | 4.5 min
O=c1cc(N2CCN(CC3CCCCC3)CC2)sc2c(NO)cc(C(F)(F)F)cc12 | 0.244 µg/mL (≈ 0.553 µM) | 47.8% | 19.1% |  |  | 
COP(=O)(NC1CCC(CN2CCN(c3cc(=O)c4cc(C(F)(F)F)cc([N+](=O)[O-])c4s3)CC2)CC1)OC (configuration not stated) | 3.15 µg/mL (≈ 5.45 µM) |  |  | > 64 µg/mL |  | 
O=C(OC1CCC(CN2CCN(c3cc(=O)c4cc(C(F)(F)F)cc([N+](=O)[O-])c4s3)CC2)CC1)C1CCC1 (configuration not stated) | 0.028 µg/mL (≈ 0.0506 µM) |  |  | > 64 µg/mL |  | 
CO[C@H]1/C=C/O[C@@]2(C)Oc3c(C)c(O)c4c(O)c(c(/C=N/N5CCN(C)CC5)c(O)c4c3C2=O)NC(=O)/C(C)=C\C=C\[C@H](C)[C@H](O)[C@@H](C)[C@@H](O)[C@@H](C)[C@H](OC(C)=O)[C@@H]1C [RIFAMPIN] | 0.025 µg/mL (≈ 0.0304 µM) |  |  | > 64 µg/mL |  | 
